Where two headings read alike, the source gives them in different places.
Assays:
[1] = molecular target: T1, NR2B subunit of the NMDA receptor (Rattus norvegicus, UniProt P35439+Q00960); assay: Antagonistic activity at rat NMDA receptor NR2B subunit: inhibition of [3H]ifenprodil binding to rat forebrain membrane
T1 construct: The forebrain membrane specimen of male rats of an SD strain; from tissue; host or cells: rat (SD strain, male) forebrain membranes
Procedure: Antagonistic Activity at Rat NMDA Receptor NR2B Subunit
The forebrain membrane specimen of male rats of an SD strain (final concentration: 250 μg protein/mL), [^3H]-ifenprodil [diluted with an HEPES buffer (20 mmol/L HEPES-KOH and 100 μmol/L trifluoroperazine (pH 7.4)) to give the final concentration of 4 nmol/L] and a test compound (each being diluted with an HEPES buffer to give the final concentration of […]) were mixed, and incubated at 25° C. for 90 minutes shading from light. The above-incubated membrane was recovered to a G/F-B filter using a cell harvester (Brandel; M-24) to stop the reaction. The resulting membrane was further washed with an HEPES buffer for three times, and radioactivity on the filter was measured (Beckman LS 6500). The antagonistic activity of the test compound for an NMDA receptor NR2B subunit was calculated by the following formula as an inhibiting rate for binding of [^3H]ifenprodil to the NR2B subunit of the NMDA receptor. The result is shown in Table 6 in terms of the concentration (IC50 value) of the test compound for 50% inhibition of binding of [^3H]ifenprodil to the NR2B subunit of the NMDA receptor. [formula] Non-specific binding amount: Binding amount of [^3H]ifenprodil in the presence of 10 μmol/L of ifenprodil Total binding amount: Binding amount of [^3H]ifenprodil in the absence of the test compound
Binding amount in the present of test compound: Binding amount of [^3H]ifenprodil in the presence of the test compound in each concentration

[2] = tested on: strangulated nerve-damaged rats; assay: Suppressive effect on neurogenic pain (allodynia, von Frey pain threshold) in strangulated nerve-damaged rats; assay type: in vivo, rat; conditions: male SD rats, orally administered at the dose of 5 and 10 mg/kg, measured 1, 3 and 5 hours after administration
Procedure: Suppressive Effect of the Compound to Neurogenic Pain in Strangulated Nerve-damaged Rats
The test was carried out in accordance with a method by G. M. Pitcher, et al. [Pain, 1999,. vol. 83, pages 37 to 46] which is an improvement of a method by T. Mosconi and K. Kruger [Pain, 1996, vol. 64, pages 37 to 57].
Using male rats of an SD strain (Sprague-Dawley rats), strangulated nerve-damaged rats were prepared by removing sciatic nerve under anesthetizing with pentobarbital, and covering with a PE-60 polyethylene tube (trade name: Intramedic; size: PE-60; manufactured by Becton Dickinson) having a length of 2 mm over the removed area. After 14 to 21 days from the preparation, the following test was carried out. Incidentally, a pain threshold (g) was calculated by the following method, and the rats (strangulated rat-damaged rats) showing less than 4 g of a 50% pain threshold were used for the test in which one group comprised six rats. […]
For the measurement of allodynia which is characteristically noted in neurogenic pain, a von Frey filament (trade name: touch test sensory evaluator; catalog number: model 58011) was used and the result is expressed as a pain threshold (g). The pain threshold (g) was calculated by the up-down method by W. J. Dixon [Annual Review of Pharmacology and Toxicology, 1980, vol. […]

[3] = forebrain membrane of male SD rats, 4 nmol/L [3H]-ifenprodil, 25° C., 90 minutes, read-out: IC50, concentration for 50% inhibition of binding of [3H]ifenprodil to the NR2B subunit of the NMDA receptor

T1 sequence (Q00960 27-1482, other chains not shown): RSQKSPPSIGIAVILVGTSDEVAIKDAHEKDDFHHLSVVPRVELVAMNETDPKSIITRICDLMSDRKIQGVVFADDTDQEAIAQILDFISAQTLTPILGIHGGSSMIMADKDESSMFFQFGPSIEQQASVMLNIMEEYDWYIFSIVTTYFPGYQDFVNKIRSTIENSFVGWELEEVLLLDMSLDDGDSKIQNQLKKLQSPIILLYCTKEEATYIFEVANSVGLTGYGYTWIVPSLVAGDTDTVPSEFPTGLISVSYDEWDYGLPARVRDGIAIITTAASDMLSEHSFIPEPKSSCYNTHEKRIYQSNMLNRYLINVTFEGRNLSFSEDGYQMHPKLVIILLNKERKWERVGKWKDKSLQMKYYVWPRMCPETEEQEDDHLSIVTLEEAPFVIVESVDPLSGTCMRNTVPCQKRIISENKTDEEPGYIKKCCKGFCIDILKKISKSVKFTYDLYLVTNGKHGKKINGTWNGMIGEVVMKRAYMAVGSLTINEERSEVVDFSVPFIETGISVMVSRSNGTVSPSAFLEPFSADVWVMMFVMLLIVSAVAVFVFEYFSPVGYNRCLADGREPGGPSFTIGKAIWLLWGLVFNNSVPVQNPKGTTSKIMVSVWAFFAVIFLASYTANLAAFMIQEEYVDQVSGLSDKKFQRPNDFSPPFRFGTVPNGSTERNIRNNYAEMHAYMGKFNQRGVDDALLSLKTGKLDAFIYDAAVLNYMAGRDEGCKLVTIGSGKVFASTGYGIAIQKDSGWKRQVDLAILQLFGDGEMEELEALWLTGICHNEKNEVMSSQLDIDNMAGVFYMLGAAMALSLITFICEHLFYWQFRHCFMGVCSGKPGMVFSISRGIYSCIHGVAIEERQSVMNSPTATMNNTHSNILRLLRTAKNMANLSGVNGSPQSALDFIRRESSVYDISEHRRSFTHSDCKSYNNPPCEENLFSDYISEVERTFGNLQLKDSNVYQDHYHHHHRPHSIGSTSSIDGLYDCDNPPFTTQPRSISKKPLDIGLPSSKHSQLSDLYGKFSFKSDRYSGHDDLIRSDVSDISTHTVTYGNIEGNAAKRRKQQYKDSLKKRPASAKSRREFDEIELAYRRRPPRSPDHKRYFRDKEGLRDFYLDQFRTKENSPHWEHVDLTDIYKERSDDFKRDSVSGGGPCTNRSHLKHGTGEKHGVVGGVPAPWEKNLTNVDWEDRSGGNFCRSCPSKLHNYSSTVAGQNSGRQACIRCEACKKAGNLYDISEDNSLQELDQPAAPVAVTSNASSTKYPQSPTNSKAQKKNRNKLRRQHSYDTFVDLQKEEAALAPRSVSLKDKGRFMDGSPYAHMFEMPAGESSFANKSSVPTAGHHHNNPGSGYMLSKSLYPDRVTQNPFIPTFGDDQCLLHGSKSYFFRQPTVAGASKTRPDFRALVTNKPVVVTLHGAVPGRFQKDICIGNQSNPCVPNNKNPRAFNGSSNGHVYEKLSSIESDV

SMILES | IC50 [1, 3] [nM] | IC50 [1] [nM] | improvement of allodynia (pain threshold, von Frey filament) versus Solvent treated group [2]
CC(C(O)c1ccc2[nH]c(=O)sc2c1)N1CCC(O)(c2cccs2)CC1 (racemic) [Compound 1, (±)-threo-6-{1-Hydroxy-2-[4-hydroxy-4-(thiophenee-2-yl)piperidino]propyl}benzothiazol-2(3H)-one] |  | 2 | 
CC(C(O)c1ccc2[nH]c(=O)sc2c1)N1CCC(O)(c2cccs2)CC1 (racemic) [Compound 2, (±)-erythro-6-{1-hydroxy-2-[4-hydroxy-4-thiophenee-2-yl)piperidino]propyl}benzothiazol-2(3H)-one] |  | 4.1 | 
CC(C(O)c1ccc2c(c1)CCC(=O)N2)N1CCC(O)(c2cccs2)CC1 (racemic) [Compound 6, (±)-threo-6-{1-Hydroxy-2-[4-hydroxy-4-(thiophene-2-yl)piperidino]propyl}-3,4-dihydroquinolin-2(1H)-one] | 4.6 |  | significantly improved
O=c1[nH]c2ccc(C(O)CN3CCC(O)(c4cccs4)CC3)cc2s1 (centres unmarked) [Compound 5, 6-{1-Hydroxy-2-[4-hydroxy-4-(thiophene-2-yl)-piperidino]ethyl}benzothiazol-2(3H)-one] |  | 2.9 | 

More lines, main results first:

IC50 [1, 3] [nM] | SMILES | IC50 [1] [nM] | improvement of allodynia (pain threshold, von Frey filament) versus Solvent treated group [2]
5.5 | CC(C(O)c1ccc2c(c1)CCC(=O)N2)N1CCC(O)(c2cccs2)CC1 (racemic) [Compound 7, (±)-erythro-6-{1-Hydroxy-2-[4-hydroxy-4-(thiophene-2-yl)piperidino]propyl}-3,4-dihydroquinolin-2(1H)-one] |  | 
5.2 | O=C1CCc2cc(C(O)CN3CCC(O)(c4cccs4)CC3)ccc2N1 (centres unmarked) [Compound 10] |  | significantly improved

— US20070185168A1, “Piperidine derivatives” (priority 2004, published 2007)
